# Structures can show the parent of a compound that is named as a salt.
# Tests used:
# [1] = Dispersion quality of MDI formulations (visual suspension quality after 24 hours); format: physicochemical; details: HFC-134a
# Method: A determination of the dispersion quality of several MDI formulations prepared with HFA-134a was conducted as follows: Pluronic® L44 (BASF Corp., Parsippany, N.J.), drug and excipients being formulated were combined in the amounts shown in appropriate transparent aerosol containers (vials). The vials were crimped using a 100 μL Valois metered valve and charged with approximately 10 mL of HFC-134a. The container was shaken for about 30 minutes to blend the ingredients. The dispersion quality in each preparation was evaluated visually after 24 hours using the following criteria:
# Poor: Phase separation; top phase clear, bottom phase containing solids
# Fair: Partial phase separation; cloudiness in the top phase
# Good: Grainy appearance; no phase separation
# Excellent: Milky homogeneous appearance; no phase separation
# [2] = Intratracheal administration of liquid formulation to tracheotomized dogs; format: in vivo; details: 0.1 mg/kg (approximately 0.5 ml), mannitol/water solution
# Method: The viscosity of the administered solution was similar to water and the dose was squirted into the tube via pressure from a syringe filled with the liquid formulation. This formlation would not be administered through nasal or mouth means.
# The solution used in the intratracheal administration contained the following:
# Compound of example 1 6.9 mg/ml
# with water for Injection as the solvent.
# The above percentages may be varied by one of ordinary skill in the art to provide various dosages and/or ratios of the above excipients or compounds.
# [3] = Bioavailability of MDI compositions in dogs, inhalation vs intravenous (plasma diol); format: in vivo, beagle dog; details: dog
# Source text: The aerosol sprays were delivered anteriorly via a tracheal stoma in each subject animal (beagle dog).
smiles,measurement,setting,value
"CCCc1cc2c(s1)CN[C@@H]1CCc3cc(OC(C)=O)c(OC(C)=O)cc3[C@@H]21 [Compound of Example 1, (5aR-trans)-4,5,6,7,11b-hexahydro-2-propylbenzo[f]thieno[2,3-c]quinoline-9,10-diol, diacetate (ester) hydrochloride]",Suspension Quality,"[1]; 20 mg drug, 0 Pluronic L44, 0 tocopherol acetate",good
same,Suspension Quality,"[1]; 20 mg drug, 3 Pluronic L44, 0 tocopherol acetate",good
same,Suspension Quality,"[1]; 20 mg drug, 3 Pluronic L44, 2 mg tocopherol acetate",good
same,Suspension Quality,"[1]; 20 mg drug, 5 Pluronic L44, 0 tocopherol acetate",good
same,Suspension Quality,"[1]; 20 mg drug, 5 Pluronic L44, 2 mg tocopherol acetate",good
same,Suspension Quality,"[1]; 40 mg drug, 0 Pluronic L44, 0 tocopherol acetate",good
same,Suspension Quality,"[1]; 40 mg drug, 3 Pluronic L44, 0 tocopherol acetate",good
same,Suspension Quality,"[1]; 40 mg drug, 3 Pluronic L44, 2 mg tocopherol acetate",good
same,Suspension Quality,"[1]; 40 mg drug, 5 Pluronic L44, 0 tocopherol acetate",good
same,Suspension Quality,"[1]; 40 mg drug, 5 Pluronic L44, 2 mg tocopherol acetate",good
same,delivery on intratracheal administration,[2],effectively delivered
same,lung absorption following inhalation delivery vs I.V. administration,[3]; inhalation,occurs more efficiently than I.V. administration
same,absorption upon delivery to the lungs,[3]; suspended in HFC-134a,well absorbed upon delivery to the lungs

# — patent US6193954A, “Formulations for pulmonary delivery of dopamine agonists” (Abbott Laboratories, priority 1997, dated 2001)
